Values quoted from earlier work as cited in patent US9255091B2, “Benzothiazole-based pyridinium compounds” (The University of Montana, priority 2011, dated 2016).

Target: AChE P-site (Homo sapiens (Human), UniProt P22303)
Conditions: binds selectively to the AChE P-site; read-out: equilibrium dissociation constant

Chain of AChE P-site (P22303 32-614 limits assumed): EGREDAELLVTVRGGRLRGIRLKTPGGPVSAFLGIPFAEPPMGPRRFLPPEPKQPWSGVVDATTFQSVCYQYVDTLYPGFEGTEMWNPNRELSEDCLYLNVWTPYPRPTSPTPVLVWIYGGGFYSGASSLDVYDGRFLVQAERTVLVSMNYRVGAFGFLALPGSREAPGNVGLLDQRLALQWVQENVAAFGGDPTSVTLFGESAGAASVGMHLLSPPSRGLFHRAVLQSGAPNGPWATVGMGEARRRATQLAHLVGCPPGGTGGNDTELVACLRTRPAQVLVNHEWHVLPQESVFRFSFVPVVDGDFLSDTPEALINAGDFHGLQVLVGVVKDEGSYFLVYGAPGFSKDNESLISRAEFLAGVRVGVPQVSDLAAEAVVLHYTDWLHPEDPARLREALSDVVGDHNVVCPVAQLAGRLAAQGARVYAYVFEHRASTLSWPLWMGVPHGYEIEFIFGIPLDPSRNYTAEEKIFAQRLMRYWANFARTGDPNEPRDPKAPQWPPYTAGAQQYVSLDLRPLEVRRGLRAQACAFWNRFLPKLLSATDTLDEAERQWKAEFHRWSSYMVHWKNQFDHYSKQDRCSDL

SMILES: Cc1ccc2c(c1)sc(-c1ccc(N(C)C)cc1)[n+]2C [Thioflavin T]
- Kd: 1000 nM
